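1) Cells in 96-well plates. 2) Compound, 48 h, 5 concentrations. 3) Linear interpolation between surrounding doses. 4) Unreached endpoint = highest concentration. GI50 = concentration required for 50% inhibition of growth.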 Activity calls are given as the source filed them. No stated cut-off is given here; in the data, active = GI50 up to about 1.1 µM and inactive = higher.
Key:
Experiment in all cases: DTP human tumour cell line panel, 48 h
PC-3 = tested on: PC-3
HT-29 = tested on: HT-29
MCF7 = tested on: MCF7
RPMI-8226 = tested on: RPMI-8226
LOX IMVI = tested on: LOX IMVI
HL-60 = tested on: HL-60
OVCAR-3 = tested on: OVCAR-3
MOLT-4 = tested on: MOLT-4
IGROV-1 = tested on: IGROV-1
ACHN = tested on: ACHN
MDA-N = tested on: MDA-N
OVCAR-5 = tested on: OVCAR-5
SF-268 = tested on: SF-268
HCT-116 = tested on: HCT-116
HOP-62 = tested on: HOP-62
TK-10 = tested on: TK-10
OVCAR-4 = tested on: OVCAR-4
SNB-19 = tested on: SNB-19
SK-MEL-28 = tested on: SK-MEL-28
RXF 393 = tested on: RXF 393
SF-539 = tested on: SF-539
EKVX = tested on: EKVX
OVCAR-8 = tested on: OVCAR-8
A498 = tested on: A498
HCT-15 = tested on: HCT-15
U-251 = tested on: U-251
A549 = tested on: A549
786-0 = tested on: 786-0
HOP-92 = tested on: HOP-92
NCI-H522 = tested on: NCI-H522
COLO 205 = tested on: COLO 205
K562 = tested on: K562
Malme-3M = tested on: Malme-3M
CAKI-1 = tested on: CAKI-1
UACC-62 = tested on: UACC-62
SN12C = tested on: SN12C
NCI-H226 = tested on: NCI-H226
SW-620 = tested on: SW-620
NCI-H460 = tested on: NCI-H460
DU-145 = tested on: DU-145
HCC 2998 = tested on: HCC 2998
SK-OV-3 = tested on: SK-OV-3
MDA-MB-435 = tested on: MDA-MB-435
NCI-H23 = tested on: NCI-H23
SK-MEL-5 = tested on: SK-MEL-5
MDA-MB-231 = tested on: MDA-MB-231
NCI/ADR-RES = tested on: NCI/ADR-RES
Hs-578T = tested on: Hs-578T
SF-295 = tested on: SF-295
UACC-257 = tested on: UACC-257
KM12 = tested on: KM12
M14 = tested on: M14
SR = tested on: SR
CCRF-CEM = tested on: CCRF-CEM
SNB-75 = tested on: SNB-75
T47D = tested on: T47D
UO-31 = tested on: UO-31
SK-MEL-2 = tested on: SK-MEL-2

For `O=C1C[C@H]2[C@H](c3ccc(Br)cc3)[C@H]3C(=O)c4ccccc4NC(=O)[C@@H]3[C@@]2(O)c2ccccc2N1`, the GI50 (PC-3) was 8.15 µM (inactive), the GI50 (HT-29) was 10.7 µM (inactive) and the GI50 (MCF7) was 11.1 µM (inactive). The GI50 (RPMI-8226) was 9.82 µM (inactive), the GI50 (LOX IMVI) was 13.8 µM (inactive) and the GI50 (HL-60) was 3.09 µM (inactive). For the same molecule, the GI50 (OVCAR-3) was 10.6 µM (inactive), the GI50 (MOLT-4) was 3.94 µM (inactive) and the GI50 (IGROV-1) was 8.22 µM (inactive). For the same molecule, the GI50 (ACHN) was 11.2 µM (inactive), the GI50 (MDA-N) was 17.1 µM (inactive) and the GI50 (OVCAR-5) was 27.2 µM (inactive). The GI50 (SF-268) was 19.1 µM (inactive), the GI50 (HCT-116) was 12.3 µM (inactive) and the GI50 (HOP-62) was 19.6 µM (inactive). The GI50 (TK-10) was 17.1 µM (inactive), the GI50 (OVCAR-4) was 12.5 µM (inactive) and the GI50 (SNB-19) was 38.2 µM (inactive). For the same molecule, the GI50 (SK-MEL-28) was 26.5 µM (inactive), the GI50 (RXF 393) was 3.48 µM (inactive) and the GI50 (SF-539) was 19.5 µM (inactive). The GI50 (EKVX) was 48.6 µM (inactive), the GI50 (OVCAR-8) was 19 µM (inactive) and the GI50 (A498) was 8.34 µM (inactive). For the same molecule, the GI50 (HCT-15) was 27.9 µM, the GI50 (U-251) was 22.1 µM (inactive) and the GI50 (A549) was 11.6 µM (inactive). For the same molecule, the GI50 (786-0) was 19.4 µM (inactive), the GI50 (HOP-92) was < 0.01 µM (active) and the GI50 (NCI-H522) was 12.1 µM (inactive). For the same molecule, the GI50 (COLO 205) was 14.8 µM (inactive), the GI50 (K562) was 12 µM (inactive) and the GI50 (Malme-3M) was 19.7 µM (inactive). The GI50 (CAKI-1) was 5.85 µM (inactive), the GI50 (UACC-62) was 24.8 µM (inactive) and the GI50 (SN12C) was 24.5 µM (inactive). For the same molecule, the GI50 (NCI-H226) was 14.4 µM (inactive), the GI50 (SW-620) was 19.7 µM (inactive) and the GI50 (NCI-H460) was 25.5 µM (inactive). The GI50 (DU-145) was 24 µM (inactive), the GI50 (HCC 2998) was 11.7 µM (inactive) and the GI50 (SK-OV-3) was 21 µM (inactive). For the same molecule, the GI50 (MDA-MB-435) was 10 µM (inactive), the GI50 (NCI-H23) was 10.4 µM (inactive) and the GI50 (SK-MEL-5) was 19.3 µM (inactive). The GI50 (MDA-MB-231) was 14.4 µM (inactive), the GI50 (NCI/ADR-RES) was 14.9 µM (inactive) and the GI50 (Hs-578T) was 48 µM (inactive). The GI50 (SF-295) was 24 µM (inactive), the GI50 (UACC-257) was 20.2 µM (inactive) and the GI50 (KM12) was 11.7 µM (inactive). For the same molecule, the GI50 (M14) was 12.3 µM (inactive), the GI50 (SR) was 7.41 µM (inactive) and the GI50 (CCRF-CEM) was 10.6 µM (inactive). For the same molecule, the GI50 (SNB-75) was 4.53 µM (inactive).
For `CC(C)=CC(=O)O[C@H]1C(=O)O[C@@H]2C[C@H]3[C@H](C)C(=O)C(O[C@@H]4O[C@H](CO)[C@@H](O)[C@H](O)[C@H]4O)=C[C@]3(C)[C@H]3[C@@H](O)[C@H](O)[C@]4(C(=O)O)OC[C@]32[C@@H]14` [BRUCEOSIDE D], the GI50 (PC-3) was 71 µM (inactive), the GI50 (IGROV-1) was 54 µM (inactive) and the GI50 (MDA-N) was 66.2 µM (inactive). The GI50 (OVCAR-5) was 84.5 µM (inactive), the GI50 (TK-10) was 71.9 µM (inactive) and the GI50 (A498) was 79.1 µM (inactive). The GI50 (786-0) was 96.6 µM (inactive), the GI50 (COLO 205) was 65.8 µM (inactive) and the GI50 (CAKI-1) was 90.8 µM (inactive). The GI50 (UACC-62) was 97.5 µM (inactive), the GI50 (SW-620) was 79.4 µM (inactive) and the GI50 (MDA-MB-435) was 66.5 µM (inactive). The GI50 (NCI-H23) was 56.1 µM (inactive), the GI50 (T47D) was 51.9 µM (inactive) and the GI50 (UACC-257) was 98.9 µM (inactive). For the same molecule, the GI50 (SNB-75) was 86.1 µM (inactive).
With `COc1ccc(C[C@H]2COC(=O)[C@@H]2Cc2ccc(O)cc2)cc1OC` the GI50 (HT-29) was > 100 µM (inactive), the GI50 (RPMI-8226) was > 100 µM (inactive) and the GI50 (LOX IMVI) was > 100 µM (inactive). For the same molecule, the GI50 (OVCAR-3) was > 100 µM (inactive), the GI50 (MOLT-4) was > 100 µM (inactive) and the GI50 (IGROV-1) was > 100 µM (inactive). The GI50 (ACHN) was > 100 µM (inactive), the GI50 (OVCAR-5) was > 100 µM (inactive) and the GI50 (HCT-116) was > 100 µM (inactive). The GI50 (HOP-62) was > 100 µM (inactive), the GI50 (TK-10) was > 100 µM (inactive) and the GI50 (OVCAR-4) was > 100 µM (inactive). For the same molecule, the GI50 (SNB-19) was > 100 µM (inactive), the GI50 (SK-MEL-28) was > 100 µM (inactive) and the GI50 (EKVX) was > 100 µM (inactive). The GI50 (OVCAR-8) was > 100 µM (inactive), the GI50 (A498) was > 100 µM (inactive) and the GI50 (A549) was > 10 µM (inactive). The GI50 (786-0) was > 100 µM (inactive), the GI50 (HOP-92) was > 100 µM (inactive) and the GI50 (K562) was > 100 µM (inactive). For the same molecule, the GI50 (Malme-3M) was > 100 µM (inactive), the GI50 (NCI-H226) was > 100 µM (inactive) and the GI50 (SW-620) was > 100 µM (inactive). For the same molecule, the GI50 (NCI-H460) was > 100 µM (inactive), the GI50 (DU-145) was > 100 µM (inactive) and the GI50 (NCI-H23) was > 100 µM (inactive). The GI50 (SK-MEL-5) was > 100 µM (inactive), the GI50 (NCI/ADR-RES) was > 100 µM (inactive) and the GI50 (Hs-578T) was > 100 µM (inactive). For the same molecule, the GI50 (SF-295) was > 100 µM (inactive), the GI50 (UACC-257) was > 100 µM (inactive) and the GI50 (M14) was > 100 µM (inactive). For the same molecule, the GI50 (SR) was > 100 µM (inactive) and the GI50 (CCRF-CEM) was > 100 µM (inactive).
`CON(C)c1nc(N)c(C#N)c(C#N)c1C#N` was tested, and the GI50 (PC-3) was > 10 µM (inactive), the GI50 (HT-29) was > 10 µM (inactive) and the GI50 (MCF7) was > 10 µM (inactive). The GI50 (RPMI-8226) was > 10 µM (inactive), the GI50 (LOX IMVI) was > 10 µM (inactive) and the GI50 (HL-60) was 4.16 µM (inactive). The GI50 (OVCAR-3) was 2.28 µM (inactive), the GI50 (MOLT-4) was > 10 µM (inactive) and the GI50 (IGROV-1) was > 10 µM (inactive). The GI50 (ACHN) was > 10 µM (inactive), the GI50 (MDA-N) was > 10 µM (inactive) and the GI50 (OVCAR-5) was > 10 µM (inactive). The GI50 (SF-268) was > 10 µM (inactive), the GI50 (HCT-116) was > 10 µM (inactive) and the GI50 (HOP-62) was > 10 µM (inactive). The GI50 (TK-10) was > 10 µM (inactive), the GI50 (OVCAR-4) was > 10 µM (inactive) and the GI50 (SNB-19) was > 10 µM (inactive). The GI50 (SK-MEL-28) was > 10 µM (inactive), the GI50 (RXF 393) was > 10 µM (inactive) and the GI50 (SF-539) was > 10 µM (inactive). The GI50 (UO-31) was > 10 µM (inactive), the GI50 (EKVX) was > 10 µM (inactive) and the GI50 (OVCAR-8) was > 10 µM (inactive). The GI50 (A498) was > 10 µM (inactive), the GI50 (HCT-15) was greater than 10 µM and the GI50 (U-251) was > 10 µM (inactive). The GI50 (A549) was > 10 µM (inactive), the GI50 (NCI-H522) was > 10 µM (inactive) and the GI50 (COLO 205) was > 10 µM (inactive). For the same molecule, the GI50 (Malme-3M) was > 10 µM (inactive), the GI50 (SK-MEL-2) was > 10 µM (inactive) and the GI50 (CAKI-1) was > 10 µM (inactive). The GI50 (UACC-62) was > 10 µM (inactive), the GI50 (SN12C) was > 10 µM (inactive) and the GI50 (NCI-H226) was > 10 µM (inactive). For the same molecule, the GI50 (SW-620) was > 10 µM (inactive), the GI50 (NCI-H460) was > 10 µM (inactive) and the GI50 (DU-145) was > 10 µM (inactive). For the same molecule, the GI50 (HCC 2998) was > 10 µM (inactive), the GI50 (SK-OV-3) was > 10 µM (inactive) and the GI50 (MDA-MB-435) was > 10 µM (inactive). For the same molecule, the GI50 (NCI-H23) was > 10 µM (inactive), the GI50 (SK-MEL-5) was > 10 µM (inactive) and the GI50 (MDA-MB-231) was > 10 µM (inactive). The GI50 (T47D) was > 10 µM (inactive), the GI50 (NCI/ADR-RES) was > 10 µM (inactive) and the GI50 (Hs-578T) was > 10 µM (inactive). For the same molecule, the GI50 (SF-295) was > 10 µM (inactive), the GI50 (KM12) was > 10 µM (inactive) and the GI50 (M14) was > 10 µM (inactive). The GI50 (SR) was > 10 µM (inactive), the GI50 (CCRF-CEM) was 4.02 µM (inactive) and the GI50 (SNB-75) was > 10 µM (inactive).

Reference: ChEMBL document CHEMBL1201862, “PubChem BioAssay data set” (2004)
